Data on 28 compounds can be found in patent publication EP4653437A2 (Innovo Therapeutics Inc., priority 2023, dated 2024).

For orientation: IC50 means the point on the concentration scale where inhibition reaches its midpoint. Low readings indicate greater potency in that assay, high ones weaker potency in that assay.

For one test, the target named is T1, human 15-PGDH (Homo sapiens, UniProt P15428).
T1 construct: purchased R&D System 5660-DH
T1 sequence (P15428 1-266): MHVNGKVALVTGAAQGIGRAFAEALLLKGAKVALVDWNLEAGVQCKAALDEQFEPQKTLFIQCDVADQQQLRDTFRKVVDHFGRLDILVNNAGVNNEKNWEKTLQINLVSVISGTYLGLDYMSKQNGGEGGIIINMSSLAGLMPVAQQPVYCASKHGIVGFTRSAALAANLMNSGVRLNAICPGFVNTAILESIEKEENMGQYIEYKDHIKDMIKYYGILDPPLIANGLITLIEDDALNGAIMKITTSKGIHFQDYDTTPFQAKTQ
Kind of test: Evaluation of 15-PGDH inhibitory activity (fluorescence enzyme assay, NAD+/PGE2). The note with it: human 15-PGDH enzyme, fluorescence Vmax. It counts as biochemical. As for the experimental part:
15-PGDH inhibition activity of Example compounds was measured as follows. 6.7 ng of human 15-PGDH (R&D System# 5660-DH) enzyme (10 µL) was added to a black 96 well plate, 60 µL of buffer (50 mM Tris-HCl, pH 7.5, 0.01% Tween 20) was added, and 10 µL of 200 µM β-Nicotinamide adenine dinucleotide sodium salt (Sigma, Cat# N0632-5G) was added. 10 µL of (10x) compound solution in DMSO was added and reacted for 10 minutes at room temperature.

In a further test the test system is A549 cells. Kind of test: Measurement of PGE2-increasing activity in A549 cells (IL-1β stimulated, PGE2 quantified in supernatant). The note with it: Homo sapiens, 24 h; concentration of 1 µM of each compound; IL-1β treated A549 cells; read-out: Increased PGE2 production in A549 cells. It counts as cell-based. In a few lines:
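PGE2 secreted into the supernatant was measured by immunoassay 24 h after treatment. Before treatment, A549 cells were cultured 24 h in 10% FBS F12K, washed, and placed in serum-free medium containing compound (DMSO 0.1% final) plus or minus IL-1β, incubated at 37 °C, 5% CO2.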

Turning to `Cn1oc2ccc(-c3cccc4c(C(=O)N5CCCCC5)cnn34)cc2c1=O` [Example 268, 2-methyl-5-(3-(piperidine-1-carbonyl)pyrazolo[1,5-a]pyridin-7-yl)benzo[d]isoxazol-3(2H)-one], at human 15-PGDH, the IC50 is ≤ 100 nM. Also, the fold induction at 1 µM in the test on A549 cells is > 1.5.

With `O=C(c1ccc(-c2cccc3c(C(=O)N4CCCCC4)cnn23)cc1)N1CCNCC1` [Example 66, piperazin-1-yl(4-(3-(piperidine-1-carbonyl)pyrazolo[1,5-a]pyridin-7-yl)phenyl)methanone], the IC50 against human 15-PGDH is ≤ 100 nM. Moreover, the fold induction at 1 µM in the test on A549 cells was > 1.5.

On to `O=C1NCc2ccc(-c3cccc4c(C(=O)N5CC6(CCC6)C5)cnn34)cc21` [Example 390, 6-(3-(2-azaspiro[3.3]heptane-2-carbonyl)pyrazolo[1,5-a]pyridin-7-yl)isoindolin-1-one], for which the IC50 on human 15-PGDH is ≤ 100 nM. Further, the fold induction at 1 µM in the test on A549 cells is > 1.5.

Turning to `O=C(Nc1ccncc1)c1cncc(-c2cccc3c(C(=O)N4CCCCC4)cnn23)c1` [Example 54, 5-(3-(piperidine-1-carbonyl)pyrazolo[1,5-a]pyridin-7-yl)-N-(pyridin-4-yl)nicotinamide], the IC50 against human 15-PGDH is ≤ 100 nM. In the test with A549 cells, the fold induction at 1 µM was > 1.5.

Consider `O=C(Cc1cccnc1)Nc1ncc(-c2cccc3c(C(=O)N4CCCCC4)cnn23)cc1F` [Example 362, N-(3-fluoro-5-(3-(piperidine-1-carbonyl)pyrazolo[1,5-a]pyridin-7-yl)pyridin-2-yl)-2-(pyridin-3-yl)acetamide], for which, at human 15-PGDH, the IC50 is ≤ 100 nM. For the same compound, the fold induction at 1 µM in the test with A549 cells is > 1.5.

With `O=C(Nc1cccnc1)c1cccc(-c2cccc3c(C(=O)N4CCCCC4)cnn23)c1` [Example 37, 3-(3-(piperidine-1-carbonyl)pyrazolo[1,5-a]pyridin-7-yl)-N-(pyridin-3-yl)benzamide], the IC50 at human 15-PGDH is ≤ 100 nM. Moreover, the fold induction at 1 µM in the test on A549 cells was > 1.5.

As for `O=C(c1cnn2c(-c3ccc(N4CC5(CCC5)C4)nc3)cccc12)N1CCCCC1` [Example 220, (7-(6-(2-azaspiro[3.3]heptan-2-yl)pyridin-3-yl)pyrazolo[1,5-a]pyridin-3-yl)(piperidin-1-yl)methanone], the half-inhibitory concentration (IC50) against human 15-PGDH was ≤ 100 nM. The fold induction at 1 µM in the test on A549 cells is > 1.5.

In the case of `O=C(c1cnn2c(Nc3ccc[nH]c3=O)cccc12)N1CCCCC1` [Example 147, 3-((3-(piperidine-1-carbonyl)pyrazolo[1,5-a]pyridin-7-yl)amino)pyridin-2(1H)-one], on human 15-PGDH, the IC50 was ≤ 100 nM. Also, the fold induction at 1 µM with A549 cells was > 1.5.

Take `O=C(c1cnn2c(-c3ccc(F)c(-c4noc(=O)[nH]4)c3)cccc12)N1CCCCC1` [Example 275, 3-[2-fluoro-5-[3-(piperidine-1-carbonyl)pyrazolo[1,5-a]pyridin-7-yl]phenyl]-4H-1,2,4-oxadiazol-5-one]: the IC50 against human 15-PGDH was ≤ 100 nM. For the same compound, in the test on A549 cells, the fold induction at 1 µM was > 1.5.

Consider `CN1CCC(C(=O)Nc2ccc(-c3cccc4c(C(=O)N5CCCCC5)cnn34)cc2)CC1` [Example 99, 1-methyl-N-(4-(3-(piperidine-1-carbonyl)pyrazolo[1,5-a]pyridin-7-yl)phenyl)piperidine-4-carboxamide], for which the IC50 against human 15-PGDH was ≤ 100 nM. In the test with A549 cells, the fold induction at 1 µM was < 1.5.

As to `CC(C)(C)OC(=O)N1CC=C(c2cccc3c(C(=O)N4CCCCC4)cnn23)CC1` [Example 120, tert-butyl 4-(3-(piperidine-1-carbonyl)pyrazolo[1,5-a]pyridin-7-yl)-3,6-dihydropyridine-1(2H)-carboxylate], the IC50 at human 15-PGDH was ≤ 100 nM. For the same compound, in the test on A549 cells, the fold induction at 1 µM was > 1.5.

`O=C(c1cnn2c(-c3ccc(Cl)cc3)cccc12)N1CCCCC1` [Example 12, (7-(4-chlorophenyl)pyrazolo[1,5-a]pyridin-3-yl)(piperidin-1-yl)methanone]: at human 15-PGDH, the IC50 is ≤ 100 nM. The fold induction at 1 µM in the test on A549 cells was > 1.5.

For `CN(C)C1CN(c2cc(-c3cccc4c(C(=O)N5CCCCC5)cnn34)cc(-c3cncc(F)c3)n2)C1` [Example 375, (7-(6-(3-(dimethylamino)azetidin-1-yl)-5'-fluoro-[2,3'-bipyridin]-4-yl)pyrazolo[1,5-a]pyridin-3-yl)(piperidin-1-yl)methanone], the IC50 at human 15-PGDH was ≤ 100 nM. Moreover, the fold induction at 1 µM with A549 cells is > 1.5.

With `O=C(c1cnn2c(-c3ccc(-n4cc([N+](=O)[O-])cn4)nc3)cccc12)N1CCCCC1` [Example 355, (7-(6-(4-nitro-1H-pyrazol-1-yl)pyridin-3-yl)pyrazolo[1,5-a]pyridin-3-yl)(piperidin-1-yl)methanone], the IC50 against human 15-PGDH is ≤ 100 nM. Further, the fold induction at 1 µM in the test with A549 cells was > 1.5.

Turning to `O=C(c1cnn2c(-c3cnn(Cc4noc(=O)[nH]4)c3)cccc12)N1CCCCC1` [Example 396, 3-((4-(3-(piperidine-1-carbonyl)pyrazolo[1,5-a]pyridin-7-yl)-1H-pyrazol-1-yl)methyl)-1,2,4-oxadiazol-5(4H)-one], the IC50 on human 15-PGDH is ≤ 100 nM. The fold induction at 1 µM in the test with A549 cells is > 1.5.

`COCCNC(=O)c1cccc(-c2cccc3c(C(=O)N4CCCCC4)cnn23)c1` [Example 30, N-(2-methoxyethyl)-3-(3-(piperidine-1-carbonyl)pyrazolo[1,5-a]pyridin-7-yl)benzamide]: at human 15-PGDH, the half-inhibitory concentration (IC50) was ≤ 100 nM. In the test with A549 cells, the fold induction at 1 µM was > 1.5.

For the compound `O=C(c1cnn2c(NCCc3ccncc3)cccc12)N1CCCCC1` [Example 149, piperidin-1-yl(7-((2-(pyridin-4-yl)ethyl)amino)pyrazolo[1,5-a]pyridin-3-yl)methanone], the concentration for half-maximal inhibition (IC50) against human 15-PGDH was ≤ 100 nM. In addition, in the test with A549 cells, the fold induction at 1 µM was > 1.5.

As to `O=C(c1cnn2c(-c3cnc(N4CCOC4=O)nc3)cccc12)N1CCCCC1` [Example 308, 3-(5-(3-(piperidine-1-carbonyl)pyrazolo[1,5-a]pyridin-7-yl)pyrimidin-2-yl)oxazolidin-2-one], the half-inhibitory concentration (IC50) at human 15-PGDH is ≤ 100 nM. Also, in the test with A549 cells, the fold induction at 1 µM is > 1.5.

With `O=C1NCCc2cc(-c3cccc4c(C(=O)N5CCCCC5)cnn34)ccc21` [Example 136, 6-(3-(piperidine-1-carbonyl)pyrazolo[1,5-a]pyridin-7-yl)-3,4-dihydroisoquinolin-1(2H)-one], at human 15-PGDH, the half-maximal inhibitory concentration (IC50) was ≤ 100 nM. Further, the fold induction at 1 µM in the test with A549 cells is > 1.5.

As to `CC1CCCN(C(=O)c2cnn3c(-c4ccc(N5CCOC5=O)nc4)cccc23)C1` (centres unmarked) [Example 353, 3-(5-(3-(3-methylpiperidine-1-carbonyl)pyrazolo[1,5-a]pyridin-7-yl)pyridin-2-yl)oxazolidin-2-one], the IC50 against human 15-PGDH was ≤ 100 nM. Also, in the test with A549 cells, the fold induction at 1 µM is > 1.5.

For `O=C(c1ccc(-c2cccc3c(C(=O)N4CCCCC4)cnn23)cn1)N1CC(F)(F)C1` [Example 237, (3,3-difluoroazetidin-1-yl)-[5-[3-(piperidine-1-carbonyl)pyrazolo[1,5-a]pyridin-7-yl]-2-pyridyl]methanone], the concentration for half-maximal inhibition (IC50) at human 15-PGDH was ≤ 100 nM. The fold induction at 1 µM with A549 cells is > 1.5.

`O=C(c1cnn2c(-c3cc(Cl)nc(Cl)c3)cccc12)N1CCCCC1` [Example 282, (7-(2,6-dichloropyridin-4-yl)pyrazolo[1,5-a]pyridin-3-yl)(piperidin-1-yl)methanone]: on human 15-PGDH, the 50% inhibitory concentration (IC50) was ≤ 100 nM. Further, the fold induction at 1 µM in the test on A549 cells was < 1.5.

As to `O=C(Cc1cncc(F)c1)Nc1ccc(-c2cccc3c(C(=O)N4CCCCC4)cnn23)cn1` [Example 409, 2-(5-fluoropyridin-3-yl)-N-(5-(3-(piperidine-1-carbonyl)pyrazolo[1,5-a]pyridin-7-yl)pyridin-2-yl)acetamide], the IC50 against human 15-PGDH is ≤ 100 nM. In addition, in the test with A549 cells, the fold induction at 1 µM was > 1.5.

With `Cc1nnc(-c2ccc(-c3cccc4c(C(=O)N5CCCCC5)cnn34)cc2)o1` [Example 348, [7-[4-(5-methyl-1,3,4-oxadiazol-2-yl)phenyl]pyrazolo[1,5-a]pyridin-3-yl]-(1-piperidyl)methanone], the half-maximal inhibitory concentration (IC50) on human 15-PGDH is ≤ 100 nM. Moreover, the fold induction at 1 µM with A549 cells is > 1.5.

`CS(=O)(=O)NC(=O)c1cncc(-c2cccc3c(C(=O)N4CCCCC4)cnn23)c1` [Example 201, N-methylsulfonyl-5-[3-(piperidine-1-carbonyl)pyrazolo[1,5-a]pyridin-7-yl]pyridine-3-carboxamide]: at human 15-PGDH, the half-inhibitory concentration (IC50) was ≤ 100 nM. In addition, the fold induction at 1 µM in the test with A549 cells was > 1.5.

As to `O=C(Cc1ccc(C(F)(F)F)nc1)Nc1cncc(-c2cccc3c(C(=O)N4CCCCC4)cnn23)c1` [Example 388, N-(5-(3-(piperidine-1-carbonyl)pyrazolo[1,5-a]pyridin-7-yl)pyridin-3-yl)-2-(6-(trifluoromethyl)pyridin-3-yl)acetamide], the IC50 on human 15-PGDH is ≤ 100 nM. Besides, the fold induction at 1 µM in the test on A549 cells was > 1.5.

With `Cn1nccc1-c1ccc(-c2cccc3c(C(=O)N4CCCCC4)cnn23)cc1` [Example 300, [7-[4-(2-methylpyrazol-3-yl)phenyl]pyrazolo[1,5-a]pyridin-3-yl]-(1-piperidyl)methanone], the IC50 against human 15-PGDH is ≤ 100 nM. Moreover, the fold induction at 1 µM with A549 cells was < 1.5.

Regarding `O=C(c1cnn2c(-c3cc(F)nc(F)c3)cccc12)N1CCCCC1` [Example 273, (7-(2,6-difluoropyridin-4-yl)pyrazolo[1,5-a]pyridin-3-yl)(piperidin-1-yl)methanone], the IC50 at human 15-PGDH is ≤ 100 nM. Besides, the fold induction at 1 µM in the test with A549 cells is > 1.5.
